From article PMC8568920, “Serum apolipoprotein A-I potentiates the therapeutic efficacy of lysocin E against Staphylococcus aureus” (Nature Communications, 2021)
≈ marks a conversion by molar mass, not a printed value. Like-named read-outs stand apart in the source and are kept apart here.

What was measured:
S. aureus RN4220 [1] = conditions: for MIC, Control / MIC +rhApoA-I relative to control (fold) / MIC, +rhApoA-I 25µg ml-1: RN4220; for MIC, Control: no rhApoA-I; for MIC +rhApoA-I relative to control (fold) / MIC, +rhApoA-I 25µg ml-1: rhApoA-I 25 µg ml-1
Description: (§1) The antimicrobial activities of the compounds were measured using the microdilution method. Measurement of the bactericidal activity of lysocin E (0.25 µg ml^−1) and nisin (2 µg ml^−1) with or without ApoA-I was performed according to the National Committee for Clinical Laboratory Standards method. […] For the ∆menA and ∆menB strains, TSB medium was used instead of cation-adjusted-Mueller Hinton broth (CA-MHB) in the microdilution method. Sera and ApoA-I, II were added to the bacterial culture before distributing them into 96-well plates. ApoA-I and ApoA-II antimicrobial activity were evaluated using the RN4220 strain. The protein binding rate of lysocin E against human plasma was determined by a rapid equilibrium dialysis device (Thermo Fisher Scientific, Waltham, MA, USA) according to the manufacturer’s instructions.

MRSA MR6 strain = assay: Mouse systemic MRSA infection model, survival ED50; assay type: in vivo; conditions: ICR female mice; MRSA MR6 i.p. 5.7 × 10^7 CFU in mucin; s.c. at 1 h and 6 h after infection; survival after 5 days; 5 animals/group; logistic regression
Description: Mouse protocols followed the Regulations for Animal Care and Use of the University of Tokyo under approval by the Graduate School of Pharmaceutical Science at the University of Tokyo (approval nos. 24–55). Mice were housed in a group of at most five in a cage, kept in a room maintained at 23–24 °C, 55% humidity, and 12 h light/12 h dark cycle. For Table 1, clinically isolated MRSA MR6 strain[47] was cultured overnight, suspended in 7% type II porcine stomach mucin supplemented with 0.2 mM FeNH4-citrate and intraperitoneally administered to mice (ICR, female, 4 weeks of age) at 5.7 × 10^7 colony-forming units. Lysocin E (4–0.25 mg kg^−1), vancomycin (8–0.5 mg kg^−1), linezolid (8–0.5 mg kg^−1), or daptomycin (4–0.25 mg kg^−1) were administered subcutaneously to 5 animals/group at 1 h and 6 h after infection. Mouse survival was assessed after 5 days and ED50 values were calculated by multiple logistic regression analysis. For Fig. 1d, the Newman strain was cultured in TSB overnight and cells (4.0 × 10^7 colony-forming units) were washed in phosphate-buffered saline (PBS) were injected into the tail vein of 8–12-week-old female C57BL/6J wild-type mice or Apoa1 homozygous-deficient mice. After 2 h, lysocin E (0.5 mg kg^−1) was administered subcutaneously. After 24 h, the kidneys were harvested and crushed with a BioMasher II (Nippi Incorporated, Tokyo, Japan). The suspensions were diluted with PBS(−), plated on TSB agar medium and the number of colonies was counted.

[2] = cited from earlier work
MRSA = assay: microbe, parasite or virus in culture; conditions: for MIC: Staphylococcus aureus
Description: as §1

S. aureus RN4220 [3] = assay: Direct antimicrobial activity of ApoA-I and ApoA-II; assay type: cell-based, Staphylococcus aureus; conditions: up to 300 or 600 µg ml^−1; purified bovine and human proteins
Description: as §1

S. aureus = assay: Lysocin E antimicrobial activity-enhancing activity (1 unit decreases the MIC of lysocin E to 1 µg ml−1); assay type: cell-based, Staphylococcus aureus; conditions: ApoA species
Description: Calf serum (10 ml) was added to 15 ml EtOH (60% v/v) and the mixture was centrifuged for 15 min. The collected supernatant was evaporated and suspended in 8 ml Milli-Q water (fraction [fr.] II). Fr. II with formic acid (0.1%) was applied to 10 ml of ODS resin (Waters Corporation, Milford, MA, USA). After washing with 25% EtOH and then 50% EtOH, the resin was eluted with 75% EtOH containing 0.1% formic acid. The eluted sample was evaporated and dissolved in 0.8 ml buffer A (10 mM phosphate buffer [pH 7.1], 6 M urea; Fr. III). Fr. III was applied to the Superose 12 10/300 GL gel filtration column (GE Healthcare) and eluted with the AKTApurifier system (GE Healthcare). The elution was performed in buffer A at a flow rate of 0.5 ml min^−1 and 60 fractions (0.5 ml per fr.) were collected in 2-ml tubes. All fractions, except for Fr. I, were dialysed in 10 mM phosphate buffer (pH 7.1) before assessment of their activities. Protein concentrations were measured using Coomassie Plus^TM protein assay reagent (Thermo Fisher) with bovine serum albumin as the standard. Amino acid sequence analysis was performed by in-gel digestion and mass spectrometric analysis. One unit was defined as the activity that decreases the MIC of lysocin E to 1 µg ml^−1.

rhApoA-I = target: T1, rhApoA-I (Homo sapiens, UniProt P02647); assay: rhApoA-I pull-down assay (antimicrobial bound to rhApoA-I, UPLC-MS); assay type: binding; set-up: unit not given here
T1 construct: 1 65 146 160 185 243; made in house; host or cells: E. coli BL21(DE3)/pLysS, pET20b (pET-hApoWT)
T1 sequence (P02647 25-267): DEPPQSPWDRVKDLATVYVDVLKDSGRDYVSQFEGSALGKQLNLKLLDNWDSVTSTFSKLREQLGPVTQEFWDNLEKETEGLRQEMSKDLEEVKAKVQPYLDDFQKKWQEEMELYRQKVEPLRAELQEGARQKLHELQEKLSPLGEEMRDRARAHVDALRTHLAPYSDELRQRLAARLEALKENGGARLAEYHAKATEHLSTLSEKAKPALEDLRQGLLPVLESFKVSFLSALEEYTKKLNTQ
Description: Menaquinone 4 (MK-4; 100 µl of 1.25 mM) was mixed with N-dodecyl β-D-maltoside (250 µl of 100 mM) in the presence or absence of purified lipid II or lipids (300 µl of 70 µM). Lipid II fraction was prepared from S. aureus RN4220 treated with moenomycin, followed by park nucleotide removal. The mixture was dried in vacuo and dissolved in 2 ml of water. The micelles were then filtered through a 0.45-µm polyvinylidene difluoride membrane filter and a 200 µl aliquot of the filtered micelles were used to evaluate the binding of the antimicrobials in the presence of rhApoA-I. Briefly, 5 µg of antimicrobials was added to the aliquots and the mixture was incubated for 15 min on ice in the presence of 4 µg rhApoA-I. The mixture was then transferred to His-Tag magnetic beads (Dynabeads, Thermo Fisher). The bound protein was then eluted with 250 mM imidazole and then eluted antimicrobials were quantified using an ACQUITY ultra-performance liquid chromatography (UPLC) H-Class PLUS attached to Xevo G2-XS QTof system (Waters Corporation). After injecting the sample into a 2.1 × 100 mm Acquity UPLC HSS T3 1.8 μm column (Waters Corporation) equilibrated with 0.3 mL min^–1 of 30% acetonitrile and 0.1% formic acid in water, the column was developed with a linear gradient to 60% acetonitrile and 0.1% formic acid in water over 10 min. The eluate was continuously applied to a Waters Xevo G2-XS QTof mass spectrometer and the spectra were obtained using MassLynx 4.1 (Waters Corporation) in electrospray ionisation (ESI)-positive mode that was analysed by UNIFI Scientific Information System ver. 1.9 (Waters Corporation).

S. aureus ∆menB strain = assay: MIC by microdilution in TSB; assay type: cell-based, Staphylococcus aureus; conditions: TSB medium; two independent experiments
Description: as §1

S. aureus ∆menA strain = assay: MIC by microdilution in TSB; assay type: cell-based, Staphylococcus aureus; conditions: TSB medium; two independent experiments
Description: as §1

Compound: CCCCCCCCCC(=O)N[C@@H](Cc1c[nH]c2ccccc12)C(=O)N[C@H](CC(N)=O)C(=O)N[C@@H](CC(=O)O)C(=O)N[C@@H]1C(=O)NCC(=O)N[C@@H](CCCN)C(=O)N[C@@H](CC(=O)O)C(=O)N[C@H](C)C(=O)N[C@@H](CC(=O)O)C(=O)NCC(=O)N[C@H](CO)C(=O)N[C@@H]([C@H](C)CC(=O)O)C(=O)N[C@@H](CC(=O)c2ccccc2N)C(=O)O[C@@H]1C [Daptomycin, daptomycin]
- MIC, Control (S. aureus RN4220 [1]): 0.5 µg/mL (≈ 0.309 µM)
- MIC +rhApoA-I relative to control (fold) (S. aureus RN4220 [1]): 1/1
- MIC, +rhApoA-I 25µg ml-1 (S. aureus RN4220 [1]): 0.5 µg/mL (≈ 0.309 µM)
- Therapeutic effect (ED50) (MRSA MR6 strain): 0.73 mg/kg
- Protein binding (%, human plasma) ([2]; human plasma): 90–96[52] %
- Antimicrobial activity (MIC) (MRSA): 0.5 µg/mL
- MIC in 10% bovine serum (MRSA): 1 µg/mL (≈ 0.617 µM)

Compound: CC(=O)NC[C@H]1CN(c2ccc(N3CCOCC3)c(F)c2)C(=O)O1 [Linezolid, linezolid]
- Therapeutic effect (ED50) (MRSA MR6 strain): 3.8 mg/kg
- Protein binding (%, human plasma) ([2]; human): 18[52] %
- MIC (MRSA; MRSA, read-out: Antimicrobial activity (MIC)): 2 µg/mL (≈ 5.93 µM)
- MIC (MRSA; MRSA, read-out: MIC in 10% bovine serum): 2 µg/mL (≈ 5.93 µM)

Compound: CN[C@H](CC(C)C)C(=O)N[C@H]1C(=O)N[C@@H](CC(N)=O)C(=O)N[C@H]2C(=O)N[C@H]3C(=O)N[C@H](C(=O)N[C@H](C(=O)O)c4cc(O)cc(O)c4-c4cc3ccc4O)[C@H](O)c3ccc(c(Cl)c3)Oc3cc2cc(c3O[C@@H]2O[C@H](CO)[C@@H](O)[C@H](O)[C@H]2O[C@H]2C[C@](C)(N)[C@H](O)[C@H](C)O2)Oc2ccc(cc2Cl)[C@H]1O [Vancomycin, vancomycin]
- MIC, Control (S. aureus RN4220 [1]): 1 µg/mL (≈ 0.69 µM)
- MIC +rhApoA-I relative to control (fold) (S. aureus RN4220 [1]): 1/1
- MIC, +rhApoA-I 25µg ml-1 (S. aureus RN4220 [1]): 1 µg/mL (≈ 0.69 µM)
- Therapeutic effect (ED50) (MRSA MR6 strain): 4.2 mg/kg
- Protein binding (%, human plasma) ([2]; human plasma): 10–50[51] %
- MIC in 10% bovine serum (MRSA; MRSA, 10% bovine serum in medium): 1 µg/mL (≈ 0.69 µM)
- Antimicrobial activity (MIC) (MRSA; MRSA, microdilution, no serum): 1 µg/mL

Compound: ApoA-I: purified bovine and human apolipoprotein A-I
- Inhibition of S. aureus growth by the protein alone (S. aureus RN4220 [3]): did not inhibit S. aureus growth

Compound: ApoA-II: purified bovine and human apolipoprotein A-II
- Inhibition of S. aureus growth by the protein alone (S. aureus RN4220 [3]): did not inhibit S. aureus growth

Compound: hApoA-II: purified human ApoA-II (Calbiochem)
- Specific activity for lysocin E antimicrobial enhancing activity (S. aureus): 5900 unit mg-1 protein

Compound: nisin (ITSISLCTPGCKTGALMGCNMKTATCHCSIHVSK)
- MIC, Control (S. aureus RN4220 [1]): 8 µg/mL
- MIC +rhApoA-I relative to control (fold) (S. aureus RN4220 [1]): 1/4
- MIC, +rhApoA-I 25µg ml-1 (S. aureus RN4220 [1]): 2 µg/mL
- MIC, Control (S. aureus RN4220 [1]; with lipid II 25 µg ml-1): > 32 µg/mL
- MIC, +rhApoA-I 25µg ml-1 (S. aureus RN4220 [1]; with lipid II 25 µg ml-1): > 32 µg/mL
- Antimicrobial activity (MIC), WT (S. aureus RN4220 [1]; wild-type RN4220, TSB medium, two independent experiments): 16
- Nisin binding to rhApoA-I (pull-down) (rhApoA-I; CL, replicate 1): 0.284
- Nisin binding to rhApoA-I (pull-down) (rhApoA-I; CL, replicate 2): 0.1757
- Nisin binding to rhApoA-I (pull-down) (rhApoA-I; CL, replicate 3): 0.257
- Nisin binding to rhApoA-I (pull-down) (rhApoA-I; LTA, replicate 1): 0.1611
- Nisin binding to rhApoA-I (pull-down) (rhApoA-I; LTA, replicate 2): 0.2119
- Nisin binding to rhApoA-I (pull-down) (rhApoA-I; LTA, replicate 3): 0.3298
- Nisin binding to rhApoA-I (pull-down) (rhApoA-I; Lipid II, replicate 1): 1.947
- Nisin binding to rhApoA-I (pull-down) (rhApoA-I; Lipid II, replicate 2): 4.556
- Nisin binding to rhApoA-I (pull-down) (rhApoA-I; Lipid II, replicate 3): 3.824
- Nisin binding to rhApoA-I (pull-down) (rhApoA-I; PG, replicate 1): 0.4181
- Nisin binding to rhApoA-I (pull-down) (rhApoA-I; PG, replicate 2): 0.2568
- Nisin binding to rhApoA-I (pull-down) (rhApoA-I; PG, replicate 3): 0.2266
- Nisin binding to rhApoA-I (pull-down) (rhApoA-I; Vehicle (no lipid added), replicate 1): 0.2456
- Nisin binding to rhApoA-I (pull-down) (rhApoA-I; Vehicle (no lipid added), replicate 2): 0.223
- Nisin binding to rhApoA-I (pull-down) (rhApoA-I; Vehicle (no lipid added), replicate 3): 0.2718
- Antimicrobial activity (MIC), ∆menB (S. aureus ∆menB strain): 16
- Antimicrobial activity (MIC), ∆menA (S. aureus ∆menA strain): 16

Compound: rhApoA-I: recombinant human ApoA-I
- Specific activity for lysocin E antimicrobial enhancing activity (S. aureus): 6500 unit mg-1 protein
